Experimental data from article PMC10816640, “Discovery of Novel Diphenyl Acrylonitrile Derivatives That Promote Adult Rats’ Hippocampal Neurogenesis” (International Journal of Molecular Sciences, 2024).
“Also recorded” adds a separate entry of the source.

What was measured:
[1] = tested on: newborn cells in the subgranular zone; assay: BrdU+ newborn cells, rats sacrificed 28 days after BrdU; assay type: in vivo, rat; details: nine-week-old rats (n = 2), i.p. 4.0 mg/kg/day for 28 days, BrdU pulse, Figure 7A
Protocol: The study employed a rat model, wherein nine-week-old rats were administered intraperitoneally with the compound at a dose of 4.0 mg/kg/day for 28 days and then treated with a pulse of BrdU. Instead of sacrificing the rats 24 h after the BrdU injections, the rats were sacrificed after another 28 days. The brains were then isolated and cryosectioned. Eight randomly selected slices were subjected to immunohistochemical staining. This staining enabled the co-localization of the BrdU-incorporated cells with the NeuN marker, enabling the definition of the compounds that could promote the differentiation of newborn neural progenitor cells into mature functional neurons. The compounds were dissolved in reagent-grade soybean oil containing 10% ethanol to reach a drug concentration of 2.8 mg/mL. The rats in the experimental group received intraperitoneal injections of the compounds at a dose of 4.0 mg/kg/d for 28 consecutive days. As a control, the vehicle group was administered injections of reagent-grade soybean oil containing 10% ethanol. BrdU (Sigma-Aldrich, St. louis, MA, USA) solution, prepared in physiological saline at a concentration of 10 mg/mL, was administered to all rats on day 29. Each rat received two injections of BrdU at a dosage of 50 mg/kg, with a 2 h interval between injections. The rats were euthanized 24 h (or 28 days) after the final BrdU injection. Two or four rats per group were anesthetized using pentobarbital sodium (70 mg/kg) and subsequently perfused with physiological saline. The brain tissue was carefully dissected and fixed in 4% paraformaldehyde at 4 °C for one week. Next, the brain tissue underwent dehydration using a phosphate-buffered saline (PBS) solution containing 20% to 30% sucrose. Finally, the brain tissue was cryosectioned into slices with a thickness of 30 μm, and eight slices were randomly selected for further analysis. The assessment of new cell proliferation was conducted using BrdU staining. To eliminate endogenous peroxides, sections were exposed to 1% H2O2 for 30 min at RT. Cellular denaturation was achieved by treating the sections with 2 M HCl at 37 °C for 1 h, followed by rinsing in 0.1 M borate buffer (pH 8.5). Tissue sections were subjected to blocking in a solution consisting of 5% goat serum and 0.5% Triton X-100 in PBS at RT for 1–2 h. The specimens were then incubated overnight at 4 °C with a mouse primary antibody specific to BrdU (diluted at 1:500; Millipore, Billerica, MA, USA). Subsequently, the DAB kit was employed for 2 h of incubation at RT. The differentiation process of NPCs was visualized through the utilization of the NeuN/BrdU double staining technique. Tissue sections were subjected to an incubation period in a blocking buffer at RT for 1 to 2 h. The specimens were exposed to a rabbit anti-NeuN antibody (diluted at 1:500, Abcam, Cambridge, MA, UK) and a primary antibody, BrdU (diluted at 1:500), overnight at 4 °C. Afterwards, the sections were treated with anti-mouse 488 and anti-rabbit TRITC secondary antibodies for 2 h at RT. The data were presented as mean ± SEM (standard error of the mean) and visualized using GRAPHPAD PRISM 6 (Graphpad Software, La Jolla, CA, USA). Statistical analysis was conducted utilizing one-way analysis of variance (ANOVA) followed by a post hoc test. Subsequent to the statistical treatment, the observed discrepancies were determined to be statistically significant (p < 0.05).

[2] = tested on: progenitor cells in the rodents’ hippocampi; assay: Proliferation stage of neurogenesis: BrdU labeling, rats sacrificed 24 h after BrdU; assay type: in vivo, rat; details: eleven-week-old rats (n = 2), i.p. 4.0 mg/kg/day for 28 days, BrdU pulse, vs vehicle
From the text: Previous in vitro or in vivo studies mainly focused on stimulating the proliferation effect of the small molecules. In this study, a two-step protocol was employed. First, the stimulating function of the compounds on progenitor cells in the rodents’ hippocampi was examined with using bromodeoxyuridine (BrdU) labeling. Next, the potent compounds were further screened to ascertain their ability to promote the differentiation of neural progenitor cells, as confirmed by dual labeling of BrdU and NeuN (neuronal nuclear antigen).
Adult rats were administered intraperitoneally with the prepared compounds at a dose of 4.0 mg/kg/day for a period of 28 days, followed by a BrdU pulse. After 24 h, the rats were sacrificed, and their brain tissues were isolated and cryosectioned. Immunohistochemical staining was performed and eight brain tissue slices were randomly selected for statistical analyzing.
Eight-week-old (or 10-week-old) SD male rats purchased from Peking University Health Science Center were acclimatized for one week at the Beijing Institute of Technology. All experimental protocols strictly adhered to the regulations governing the management of experimental animals and the animal ethics policy of the Beijing Institute of Technology.
The compounds were dissolved in reagent-grade soybean oil containing 10% ethanol to reach a drug concentration of 2.8 mg/mL. The rats in the experimental group received intraperitoneal injections of the compounds at a dose of 4.0 mg/kg/d for 28 consecutive days. As a control, the vehicle group was administered injections of reagent-grade soybean oil containing 10% ethanol. BrdU (Sigma-Aldrich, St. louis, MA, USA) solution, prepared in physiological saline at a concentration of 10 mg/mL, was administered to all rats on day 29. Each rat received two injections of BrdU at a dosage of 50 mg/kg, with a 2 h interval between injections. The rats were euthanized 24 h (or 28 days) after the final BrdU injection.
Two or four rats per group were anesthetized using pentobarbital sodium (70 mg/kg) and subsequently perfused with physiological saline. The brain tissue was carefully dissected and fixed in 4% paraformaldehyde at 4 °C for one week. Next, the brain tissue underwent dehydration using a phosphate-buffered saline (PBS) solution containing 20% to 30% sucrose. Finally, the brain tissue was cryosectioned into slices with a thickness of 30 μm, and eight slices were randomly selected for further analysis.
The assessment of new cell proliferation was conducted using BrdU staining. To eliminate endogenous peroxides, sections were exposed to 1% H2O2 for 30 min at RT. Cellular denaturation was achieved by treating the sections with 2 M HCl at 37 °C for 1 h, followed by rinsing in 0.1 M borate buffer (pH 8.5). Tissue sections were subjected to blocking in a solution consisting of 5% goat serum and 0.5% Triton X-100 in PBS at RT for 1–2 h. The specimens were then incubated overnight at 4 °C with a mouse primary antibody specific to BrdU (diluted at 1:500; Millipore, Billerica, MA, USA). Subsequently, the DAB kit was employed for 2 h of incubation at RT.
The data were presented as mean ± SEM (standard error of the mean) and visualized using GRAPHPAD PRISM 6 (Graphpad Software, La Jolla, CA, USA). Statistical analysis was conducted utilizing one-way analysis of variance (ANOVA) followed by a post hoc test. Subsequent to the statistical treatment, the observed discrepancies were determined to be statistically significant (p < 0.05).

| Compound | proliferative activity over the longer 28 day period (number of BrdU+ cells) [1] | proliferation-promoting activity (number of BrdU+ newborn cells) ([2]; Figures 3-6) | proliferation-promoting activity (number of BrdU+ newborn cells) ([2]; Figures 3-6, 4 mg/kg/day) |
| --- | --- | --- | --- |
| CN(C)C(=O)Nc1ccc(/C=C/c2ccc3c(c2)OCO3)cc1 [8c, (E)-3-(4-(2-(benzo[d][1, 3]dioxol-5-yl)vinyl)phenyl)-1,1-dimethylurea] | could promote the proliferation of progenitors | significant proliferation-promoting activity |  |
| O=C(Nc1ccc(/C=C/c2ccc3c(c2)OCO3)cc1)C1CCC1 [8d, (E)-N-(4-(2-(benzo[d][1, 3]dioxol-5-yl)vinyl)phenyl)cyclobutanecarboxamide] | could promote the proliferation of progenitors |  | significant proliferation-promoting activity; also recorded: greater propensity for enhancing activity |
| N#CC1(C(=O)Nc2ccc(/C=C/c3ccc4c(c3)OCO4)cc2)CC1 [8e, (E)-N-(4-(2-(benzo[d][1, 3]dioxol-5-yl)vinyl)phenyl)-1-cyanocyclopropane-1-carboxamide] |  | did not display significant activity |  |
| CN(C)S(=O)(=O)Cc1ccc(/C=C/c2ccc3c(c2)OCO3)cc1 [8j, (E)-1-(4-(2-(benzo[d][1, 3]dioxol-5-yl)vinyl)phenyl)-N,N-dimethylmethanesulfonamide] |  |  | significant proliferation-promoting activity; also recorded: greater propensity for enhancing activity |
| O=S(=O)(Nc1ccc(/C=C/c2ccc3c(c2)OCO3)cc1)C1CC1 [8k, (E)-N-(4-(2-(benzo[d][1, 3]dioxol-5-yl)vinyl)phenyl)cyclopropanesulfonamide] | could promote the proliferation of progenitors |  | significant proliferation-promoting activity; also recorded: greater propensity for enhancing activity |
| COc1cc(/C=C/c2ccc(NC(=O)C(C)C)cc2)cc(OC)c1 [9b, (E)-N-(4-(3,5-dimethoxystyryl)phenyl)isobutyramide] |  | significant proliferation-promoting activity |  |
| COc1cc(/C=C/c2ccc(NC(=O)c3ccccc3)c(F)c2)cc(OC)c1 [12f, (E)-N-(4-(3,5-dimethoxystyryl)-2-fluorophenyl)benzamide] |  |  | not and adversely affected the proliferative activity |
| CC(C)C(=O)Nc1ccc(C/C=C/c2ccc3c(c2)OCO3)cc1 [18b, (E)-N-(4-(3-(benzo[d][1, 3]dioxol-5-yl)allyl)phenyl)isobutyramide] | did not exhibit significant proliferative activity |  | significant proliferation-promoting activity; also recorded: maintained the same proliferative activity as 9b |
| CC(C)C(=O)Nc1ccc(/C=C/Cc2ccc3c(c2)OCO3)cc1 [23b, (E)-N-(4-(3-(benzo[d][1, 3]dioxol-5-yl)prop-1-en-1-yl)phenyl)isobutyramide] | did not exhibit significant proliferative activity |  | significant proliferation-promoting activity; also recorded: maintained the same proliferative activity as 9b |
| CS(=O)(=O)Nc1ccc(/C=C/Cc2ccc3c(c2)OCO3)cc1 [23i, (E)-N-(4-(3-(benzo[d][1, 3]dioxol-5-yl)prop-1-en-1-yl)phenyl)methanesulfonamide] |  | decreased |  |
| COc1cc(C/C=C/c2ccc(NC(=O)C(C)C)cc2)cc(OC)c1 [24b, (E)-N-(4-(3-(3,5-dimethoxyphenyl)prop-1-en-1-yl)phenyl)isobutyramide] | did not exhibit significant proliferative activity |  |  |
| CC(=O)Nc1ccc(CN(C)Cc2ccc3c(c2)OCO3)cc1 [36a, N-(4-(((benzo[d][1, 3]dioxol-5-ylmethyl)(methyl)amino)methyl)phenyl)acetamide] |  | abolished the activity |  |
| CC(C)C(=O)NCc1ccc(/C=C/c2ccc3c(c2)OCO3)cc1 [42b, (E)-N-(4-(2-(benzo[d][1, 3]dioxol-5-yl)vinyl)benzyl)isobutyramide] | remained devoid of proliferative activity |  | not and loss of activity |
